Data published in patent publication US4609673A, “Carboxylic acid derivatives, processes for the preparation thereof and pharmaceutical compositions containing them” (Boehringer Mannheim GmbH, priority 1984, dated 1986).

Columns and labels:
citrate synthase = conditions: Angew. Chem., 92, 133/1980; cited from earlier work
HMG-CoA-reductase = conditions: cited from earlier work
HMG-CoA synthase = conditions: J. Biol. Chem., 257, 2842/1982; cited from earlier work
Rat hepatocytes = assay: 14C-acetate incorporation into cholesterol (cholesterol biosynthesis) in rat hepatocytes; format: cell-based; conditions: Hepatocyte, end concentration about 10^-5 M, 48 h incubation, DMSO, related to solvent treated control
Method: Rat hepatocytes were isolated according to Berry and Friend (J. Cell Biol., 43, 506-520 (1969)) and cultured as described by Davis et al. (J. Biol. Chem., 254, 2010-2016 (1979)). 2-^14 C-Acetate was used as a precursor for determination of the cholesterol biosynthesis. Newly synthetized cholesterol was determined by liquid scintillation spectrometry after extraction of radiolabelled sterols from the culture medium (Can. J. Biochem. Physiol., 37, 912-917 (1959)). The test compounds were dissolved in dimethylsulfoxide. 1 μl of this solution was given to 1 ml of the culture medium. The percentage of inhibition of ^14 C-acetate incorporation is related to a solvent treated control.
The compounds listed in the following table were tested with respect to their effect on the rate hepatocytes according to the method mentioned above. The compounds were dissolved in DMSO. 1 μl of this solution was added to 1 ml of the culture medium.
The end concentration was about 10^-5 M, the period of the incubation was 48 h. The ^14 C-acetate incorporation in cholesterol was determined.

Structure (SMILES) | inhibition at 10 µM (Rat hepatocytes) | also measured
CC(C)(COP(=O)(O)OP(=O)(O)OC[C@H]1O[C@@H](n2cnc3c(N)ncnc32)[C@H](O)[C@@H]1OP(=O)(O)O)[C@@H](O)C(=O)NCCC(=O)NCCSCCC(O)(CC(=O)O)C(=O)O (stereo partly drawn) [3,4-dicarboxy-3-hydroxybutylcoenzyme A] |  | inhibiting action on the enzyme citrate synthase (in words) (citrate synthase): exerts an inhibiting action
CC(O)(CCSCCNC(=O)CCNC(=O)[C@H](O)C(C)(C)COP(=O)(O)OP(=O)(O)OC[C@H]1O[C@@H](n2cnc3c(N)ncnc32)[C@H](O)[C@@H]1OP(=O)(O)O)CC(=O)O (stereo partly drawn) [3-hydroxy-3-methyl-4-carboxybutyl-coenzyme A] |  | inhibiting action on the enzyme HMG-CoA-reductase (in words) (HMG-CoA-reductase; FEBS Letters, 128, 145/1981): possesses an inhibiting action
CC(=O)CCSCCNC(=O)CCNC(=O)[C@H](O)C(C)(C)COP(=O)(O)OP(=O)(O)OC[C@H]1O[C@@H](n2cnc3c(N)ncnc32)[C@H](O)[C@@H]1OP(=O)(O)O [3-oxobutyl-coenzyme A] |  | substrate for HMG-CoA synthase (in words) (HMG-CoA synthase): substrate
CC[C@H](C)C(=O)O[C@H]1CCC=C2C=C[C@H](C)[C@H](CC[C@@H]3C[C@@H](O)CC(=O)O3)[C@H]21 [Compactin, 2-Methylbutanoic acid 1,2,3,7,8,8α-hexahydro-7-methyl-8-[2-(tetrahydro-4-hydroxy-6-oxo-2H-pyran-2-yl)ethyl]-1-naphthalenyl ester] | 59% | inhibitor of HMG-CoA reductase (in words) (HMG-CoA-reductase; comparison compound): potent inhibitor
CC(O)(CCSCCNC(=O)CCNC(=O)C(O)C(C)(C)CO)CC(=O)O (stereo not drawn) [Example 2, 9,13-Diaza-10,14-dioxo-6-thia-3,15,17-trihydroxy-3,16,16-trimethylheptadecanoic acid] | 33% | 
CCOC(=O)CC(C)(C)CCSCCNC(=O)CCNC(=O)C(O)C(C)(C)CO (stereo not drawn) [Example 11, 9,13-Diaza-15,17-dihydroxy-10,14-dioxo-3,3,16,16-tetramethyl-6-thiaheptadecanoic acid ethyl ester] | 28% | 
CC(CC(=O)NCCSCCC(C)(C)CC(=O)O)NC(=O)c1ccccc1 (stereo not drawn) [Example 15d, 9,13-diaza-10,14-dioxo-14-phenyl-6-thia-3,3,12-trimethyltetradecanoicacid] | 12% | 
O=C(O)CCCCSCCNC(=O)CNCc1ccccc1 [Example 16, 9,12-Diaza-10-oxo-13-phenyl-6-thiatridecanoic acid] | 10% | 
